Measurements published in the NIST ThermoML archive (doi:10.1021/je034223r).
± gives the expanded uncertainty stated by the source.

Legend:
[1] = refractive index (Na D-line) (dimensionless); xn = mol fraction of the nth substance listed; settings: 298.15 K, 101.3 kPa, Liquid, refractometer
[2] = heat capacity at constant pressure per volume; xn = mol fraction of the nth substance listed; settings: 298.15 K, 101.3 kPa, Liquid, Flow calorimetry
[3] = xn = mol fraction of the nth substance listed; settings: 298.15 K, 101.3 kPa, Liquid, vibrating tube
[4] = excess molar enthalpy (molar enthalpy of mixing); xn = mol fraction of the nth substance listed; settings: 298.15 K, 101.3 kPa, Liquid, Flow calorimetry

`O=C1CCCC1` [cyclopentanone] + C1COCO1 showed a refractive index ([1]; x2 = 0.0815) of 1.43248 ± 0.00021, a refractive index ([1]; x2 = 0.1569) of 1.43014 ± 0.00021 and a refractive index ([1]; x2 = 0.2322) of 1.42774 ± 0.00021. It also gave a refractive index ([1]; x2 = 0.3155) of 1.425 ± 0.00021, a refractive index ([1]; x2 = 0.3526) of 1.42375 ± 0.00021 and a refractive index ([1]; x2 = 0.3965) of 1.42224 ± 0.00021. For the same compound, the refractive index ([1]; x2 = 0.4345) was 1.42091 ± 0.00021, the refractive index ([1]; x2 = 0.4742) was 1.41949 ± 0.00021 and the refractive index ([1]; x2 = 0.5109) was 1.41816 ± 0.00021. It also gave a refractive index ([1]; x2 = 0.5558) of 1.4165 ± 0.00021, a refractive index ([1]; x2 = 0.5858) of 1.41537 ± 0.00021 and a refractive index ([1]; x2 = 0.6334) of 1.41355 ± 0.00021. For the same compound, the refractive index ([1]; x2 = 0.6716) was 1.41206 ± 0.00021, the refractive index ([1]; x2 = 0.7127) was 1.41042 ± 0.00021 and the refractive index ([1]; x2 = 0.7862) was 1.4074 ± 0.00021. The refractive index ([1]; x2 = 0.8695) was 1.40385 ± 0.00021, the refractive index ([1]; x2 = 0.9509) was 1.40023 ± 0.00021 and the heat capacity ([2]; x2 = 0.0645) was 1713700 ± 2700 J/K/m3. For the same compound, the heat capacity ([2]; x2 = 0.1429) was 1716000 ± 2700 J/K/m3, the heat capacity ([2]; x2 = 0.3008) was 1720700 ± 2700 J/K/m3 and the heat capacity ([2]; x2 = 0.3817) was 1723100 ± 2700 J/K/m3. It also gave a heat capacity ([2]; x2 = 0.4603) of 1725400 ± 2700 J/K/m3, a heat capacity ([2]; x2 = 0.5381) of 1727400 ± 2700 J/K/m3 and a heat capacity ([2]; x2 = 0.6191) of 1729600 ± 2700 J/K/m3. It also gave a heat capacity ([2]; x2 = 0.6973) of 1731600 ± 2700 J/K/m3, a heat capacity ([2]; x2 = 0.8468) of 1734900 ± 2700 J/K/m3 and a heat capacity ([2]; x2 = 0.928) of 1736500 ± 2700 J/K/m3. It also gave a mass density ([3]; x2 = 0.0808) of 951.41 ± 0.49 kg/m3, a mass density ([3]; x2 = 0.1586) of 958.77 ± 0.49 kg/m3 and a mass density ([3]; x2 = 0.2251) of 965.28 ± 0.49 kg/m3. The mass density ([3]; x2 = 0.3113) was 974.02 ± 0.5 kg/m3, the mass density ([3]; x2 = 0.3507) was 978.14 ± 0.5 kg/m3 and the mass density ([3]; x2 = 0.4024) was 983.65 ± 0.5 kg/m3. It also gave a mass density ([3]; x2 = 0.4295) of 986.6 ± 0.5 kg/m3, a mass density ([3]; x2 = 0.4749) of 991.62 ± 0.51 kg/m3 and a mass density ([3]; x2 = 0.509) of 995.47 ± 0.51 kg/m3. The mass density ([3]; x2 = 0.5451) was 999.61 ± 0.51 kg/m3, the mass density ([3]; x2 = 0.5465) was 999.76 ± 0.51 kg/m3 and the mass density ([3]; x2 = 0.5891) was 1004.75 ± 0.51 kg/m3. The mass density ([3]; x2 = 0.6248) was 1009 ± 0.51 kg/m3, the mass density ([3]; x2 = 0.6813) was 1015.89 ± 0.52 kg/m3 and the mass density ([3]; x2 = 0.7075) was 1019.14 ± 0.52 kg/m3. It also gave a mass density ([3]; x2 = 0.7891) of 1029.57 ± 0.52 kg/m3, a mass density ([3]; x2 = 0.8629) of 1039.38 ± 0.53 kg/m3 and an excess molar enthalpy ([4]; x2 = 0.1) of -0.000954 ± 0.000194 kcal/mol. It also gave an excess molar enthalpy ([4]; x2 = 0.2) of -0.00204 ± 0.000203 kcal/mol, an excess molar enthalpy ([4]; x2 = 0.3) of -0.0033 ± 0.000213 kcal/mol and an excess molar enthalpy ([4]; x2 = 0.4) of -0.00437 ± 0.00022 kcal/mol. The excess molar enthalpy ([4]; x2 = 0.5) was -0.00521 ± 0.000227 kcal/mol, the excess molar enthalpy ([4]; x2 = 0.6) was -0.00564 ± 0.000229 kcal/mol and the excess molar enthalpy ([4]; x2 = 0.7) was -0.00548 ± 0.000229 kcal/mol. For the same compound, the excess molar enthalpy ([4]; x2 = 0.8) was -0.00463 ± 0.000222 kcal/mol and the excess molar enthalpy ([4]; x2 = 0.9) was -0.00288 ± 0.00021 kcal/mol.

`CCCC(C)=O` [pentan-2-one] + C1COCO1 showed a refractive index ([1]; x2 = 0.0759) of 1.3885 ± 0.00021, a refractive index ([1]; x2 = 0.1654) of 1.38924 ± 0.00021 and a refractive index ([1]; x2 = 0.2333) of 1.38982 ± 0.00021. For the same compound, the refractive index ([1]; x2 = 0.3134) was 1.39054 ± 0.00021, the refractive index ([1]; x2 = 0.3532) was 1.39091 ± 0.00021 and the refractive index ([1]; x2 = 0.3984) was 1.39134 ± 0.00021. For the same compound, the refractive index ([1]; x2 = 0.431) was 1.39166 ± 0.00021, the refractive index ([1]; x2 = 0.4741) was 1.39208 ± 0.00021 and the refractive index ([1]; x2 = 0.5178) was 1.39252 ± 0.00021. It also gave a refractive index ([1]; x2 = 0.5578) of 1.39293 ± 0.00021, a refractive index ([1]; x2 = 0.5924) of 1.39329 ± 0.00021 and a refractive index ([1]; x2 = 0.6321) of 1.39372 ± 0.00021. The refractive index ([1]; x2 = 0.6761) was 1.39419 ± 0.00021, the refractive index ([1]; x2 = 0.7128) was 1.3946 ± 0.00021 and the refractive index ([1]; x2 = 0.7928) was 1.3955 ± 0.00021. It also gave a refractive index ([1]; x2 = 0.9448) of 1.3973 ± 0.00021, a heat capacity ([2]; x2 = 0.0638) of 1709600 ± 2600 J/K/m3 and a heat capacity ([2]; x2 = 0.1404) of 1711100 ± 2700 J/K/m3. For the same compound, the heat capacity ([2]; x2 = 0.2192) was 1712900 ± 2700 J/K/m3, the heat capacity ([2]; x2 = 0.2981) was 1714700 ± 2700 J/K/m3 and the heat capacity ([2]; x2 = 0.3819) was 1716700 ± 2700 J/K/m3. It also gave a heat capacity ([2]; x2 = 0.4598) of 1719100 ± 2700 J/K/m3, a heat capacity ([2]; x2 = 0.5386) of 1721800 ± 2700 J/K/m3 and a heat capacity ([2]; x2 = 0.6171) of 1724700 ± 2700 J/K/m3. The heat capacity ([2]; x2 = 0.6915) was 1727300 ± 2700 J/K/m3, the heat capacity ([2]; x2 = 0.7737) was 1730500 ± 2700 J/K/m3 and the heat capacity ([2]; x2 = 0.8546) was 1733700 ± 2700 J/K/m3. For the same compound, the heat capacity ([2]; x2 = 0.9324) was 1736700 ± 2700 J/K/m3, the mass density ([3]; x2 = 0.0882) was 816.74 ± 0.42 kg/m3 and the mass density ([3]; x2 = 0.1647) was 830.91 ± 0.43 kg/m3. For the same compound, the mass density ([3]; x2 = 0.2307) was 843.79 ± 0.43 kg/m3, the mass density ([3]; x2 = 0.3499) was 868.72 ± 0.44 kg/m3 and the mass density ([3]; x2 = 0.3798) was 875.35 ± 0.45 kg/m3. It also gave a mass density ([3]; x2 = 0.4314) of 887.14 ± 0.45 kg/m3, a mass density ([3]; x2 = 0.4631) of 894.63 ± 0.46 kg/m3 and a mass density ([3]; x2 = 0.5169) of 907.82 ± 0.46 kg/m3. For the same compound, the mass density ([3]; x2 = 0.5183) was 908.18 ± 0.46 kg/m3, the mass density ([3]; x2 = 0.5529) was 916.98 ± 0.47 kg/m3 and the mass density ([3]; x2 = 0.5897) was 926.62 ± 0.47 kg/m3. It also gave a mass density ([3]; x2 = 0.6338) of 938.59 ± 0.48 kg/m3, a mass density ([3]; x2 = 0.6667) of 947.78 ± 0.48 kg/m3 and a mass density ([3]; x2 = 0.7131) of 961.29 ± 0.49 kg/m3. It also gave a mass density ([3]; x2 = 0.7174) of 962.55 ± 0.49 kg/m3, a mass density ([3]; x2 = 0.7909) of 985.17 ± 0.5 kg/m3 and a mass density ([3]; x2 = 0.8704) of 1011.41 ± 0.52 kg/m3. The mass density ([3]; x2 = 0.9486) was 1039.18 ± 0.53 kg/m3, the excess molar enthalpy ([4]; x2 = 0.1) was 0.0128 ± 0.000311 kcal/mol and the excess molar enthalpy ([4]; x2 = 0.15) was 0.0196 ± 0.000359 kcal/mol. It also gave an excess molar enthalpy ([4]; x2 = 0.2) of 0.0266 ± 0.000406 kcal/mol, an excess molar enthalpy ([4]; x2 = 0.25) of 0.0329 ± 0.000454 kcal/mol and an excess molar enthalpy ([4]; x2 = 0.3) of 0.0375 ± 0.000478 kcal/mol. For the same compound, the excess molar enthalpy ([4]; x2 = 0.35) was 0.0424 ± 0.000526 kcal/mol, the excess molar enthalpy ([4]; x2 = 0.4) was 0.0462 ± 0.00055 kcal/mol and the excess molar enthalpy ([4]; x2 = 0.45) was 0.0492 ± 0.000574 kcal/mol. The excess molar enthalpy ([4]; x2 = 0.5) was 0.0504 ± 0.000574 kcal/mol, the excess molar enthalpy ([4]; x2 = 0.55) was 0.0506 ± 0.000574 kcal/mol and the excess molar enthalpy ([4]; x2 = 0.6) was 0.0498 ± 0.000574 kcal/mol. For the same compound, the excess molar enthalpy ([4]; x2 = 0.65) was 0.0479 ± 0.000574 kcal/mol, the excess molar enthalpy ([4]; x2 = 0.7) was 0.0449 ± 0.00055 kcal/mol and the excess molar enthalpy ([4]; x2 = 0.75) was 0.0407 ± 0.000502 kcal/mol. For the same compound, the excess molar enthalpy ([4]; x2 = 0.8) was 0.0353 ± 0.000478 kcal/mol, the excess molar enthalpy ([4]; x2 = 0.85) was 0.0286 ± 0.00043 kcal/mol and the excess molar enthalpy ([4]; x2 = 0.9) was 0.0205 ± 0.000382 kcal/mol.
